# “Also recorded” adds a separate entry of the source.
# How the values were obtained:
# [1] = system: P. aeruginosa mutant strain TTD2 biofilm; assay: Biofilm killing assessed by XTT absorbance, mutant strain TTD2; type: cell-based; settings: strain TTD2 (contains gentamicin cassette), 48 h biofilm
# Procedure: (§1) Biofilm Growth Conditions. Isolates were propagated in Mueller-Hinton broth (MHB). Flasks containing liquid medium (20 ml) were inoculated with a loopful of cells from MHB agar plates containing freshly grown isolates, and incubated overnight in an orbital shaker (100 rpm) at 37° C. Cells were harvested and resuspended in MHB at a cellular density equivalent to 1.0×10^6 cells per milliliter. Biofilms were formed on the pegs of the Calgary Biofilm Device (CBD; MBE™ Biofilm Technologies, Ltd., Edmonton AB), described in Ceri et al. (Ceri et al., J. Clin. Microbiol., 37(6):1771-6, 1999). The device consists of 96 conical pegs attached to a plastic lid. […]
# (§2) Optimizing XTT Assay. In order to optimize the quantities of 2,3-bis[2-methyloxy-4-nitro-5-sulfophenyl]-2H-tetrazolium-5-carboxanilide (XTT; Sigma) and menadione required for quantifying biofilm metabolic activity, varying concentrations were tested. […] The concentration of menadione (2-methyl-1,4-naphthoquinone; Sigma), the electron-coupling agent, was varied to establish the optimal molarity in respect to maximal absorbance readings. […] The change in XTT absorbance at 490 nm was assessed spectrophotometerically using an automated microtiter plate reader. It was determined that 75 μM gave the optimal change in absorbance after 2 h (FIG. 7). […]
# (§3) Assessment of Biofilm Killing Kinetics Using XTT. […] XTT absorbance readings were taken at 2 h and then at 24 h. […]
# [2] = system: P. aeruginosa mutant strain 4G6 biofilm; assay: Biofilm killing assessed by XTT absorbance, mutant strain 4G6; type: cell-based; settings: strain 4G6 (contains gentamicin cassette), 48 h biofilm
# Procedure: as §1, §2, §3
substance,measurement,setting,value
gentamicin,Susceptibility as assessed by XTT absorbance,[1],less susceptible; also recorded: decreased susceptibility
same,Susceptibility as assessed by XTT absorbance,[2],less susceptible; also recorded: decreased susceptibility

# From patent US20080166753A1, “Microbial Growth Assay” (University Technologies International Inc., priority 2004, published 2008)
